Source: US20060069132A1, “Azolecarboxamide herbicides” (priority 2004, published 2006)
Like-named read-outs stand apart in the source and are kept apart here.

Columns and labels:
barnyardgrass [1] = test: Test B pre-/postemergence herbicide test; format: in vivo, Echinochloa crus-galli; conditions: Echinochloa crus-galli; for pest or weed control at 125 g/ha: 125 g ai/ha; for pest or weed control at 500 g/ha: 500 g ai/ha
Procedure, shortened: (§1)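 Visual rating, 0 (no effect) to 100 (complete control), versus untreated controls after 13–15 d in greenhouse. Pre- and postemergence applications (postemergence plants 2–18 cm, 1–4 leaves); flooded paddy arm at 2-leaf stage. Compounds in non-phytotoxic solvent plus surfactant.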

cocklebur = test: Test B pre-/postemergence herbicide test; format: in vivo, Xanthium strumarium; conditions: Xanthium strumarium; for pest or weed control at 125 g/ha: 125 g ai/ha; for pest or weed control at 500 g/ha: 500 g ai/ha
Procedure, shortened: as §1

lambsquarters = test: Test B pre-/postemergence herbicide test; format: in vivo, Chenopodium album; conditions: Chenopodium album, 336 h; for pest or weed control at 125 g/ha: 125 g ai/ha; for pest or weed control at 500 g/ha: 500 g ai/ha
Procedure, shortened: (§2)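 Plants compared with untreated controls 13–15 days post-treatment and given a visual 0–100 injury score. Applications: preemergence to seeds; postemergence at 1- to 4-leaf (2–18 cm); paddy species flooded, 2-leaf stage. Vehicle non-phytotoxic, surfactant included.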

giant foxtail = test: Test B pre-/postemergence herbicide test; format: in vivo, Setaria faberi; conditions: Setaria faberi, 336 h; for pest or weed control at 125 g/ha: 125 g ai/ha; for pest or weed control at 500 g/ha: 500 g ai/ha
Procedure, shortened: as §2

pigweed = test: Test B pre-/postemergence herbicide test; format: in vivo, Amaranthus retroflexus; conditions: Amaranthus retroflexus, 336 h; for pest or weed control at 125 g/ha: 125 g ai/ha; for pest or weed control at 500 g/ha: 500 g ai/ha
Procedure, shortened: as §2

corn = test: Test B pre-/postemergence herbicide test; format: in vivo, Zea mays; conditions: Zea mays; for plant injury at 125 g/ha: 125 g ai/ha
Procedure, shortened: as §2

wheat = test: Test B postemergence herbicide test; format: in vivo, Triticum aestivum; conditions: Triticum aestivum, post-emergence, 336 h, postemergence, read-out: Wheat plant response rating
Procedure, shortened: (§3)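 Treated at 2-leaf (paddy) or 1–4-leaf, 2–18 cm (postemergence); greenhouse 13–15 d; visual score vs control, 0 none to 100 complete control; dash = not tested.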

morningglory = test: Test B pre-/postemergence herbicide test; format: in vivo, Ipomoea coccinea; conditions: Ipomoea, 336 h; for pest or weed control at 125 g/ha: 125 g ai/ha; for pest or weed control at 500 g/ha: 500 g ai/ha
Procedure, shortened: as §1

large crabgrass = test: Test B pre-/postemergence herbicide test; format: in vivo, Digitaria sanguinalis; conditions: Digitaria sanguinalis; for pest or weed control at 125 g/ha: 125 g ai/ha; for pest or weed control at 500 g/ha: 500 g ai/ha
Procedure, shortened: as §2

barnyardgrass [2] = test: Test B flooded paddy test; format: in vivo, Echinochloa crus-galli; conditions: Echinochloa crus-galli, 336 h, 1000 g ai/ha, scale 0 to 100 (0 no effect, 100 complete control), read-out: Barnyardgrass plant response rating
Procedure, shortened: (§4)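 Visual ratings, 0 (no effect) to 100 (complete control), made versus controls after 13–15 d greenhouse. Paddy plants treated at 2-leaf stage; postemergence plants at 1- to 4-leaf stage, 2–18 cm tall.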

Surinam grass = test: Test B pre-/postemergence herbicide test; format: in vivo, Urochloa decumbens; conditions: Urochloa decumbens; for pest or weed control at 125 g/ha: 125 g ai/ha; for pest or weed control at 500 g/ha: 500 g ai/ha
Procedure, shortened: as §2

wild oat = test: Test B postemergence herbicide test; format: in vivo, Avena fatua; conditions: Avena fatua, post-emergence, 336 h, postemergence, read-out: Oat, Wild plant response rating
Procedure, shortened: as §3

ducksalad = test: Test B flooded paddy test; format: in vivo, Heteranthera limosa; conditions: Heteranthera limosa, 336 h, 1000 g ai/ha, scale 0 to 100 (0 no effect, 100 complete control), read-out: Ducksalad plant response rating
Procedure, shortened: as §4

[3] = test system: small flower umbrella sedge; test: Test B flooded paddy test; format: in vivo, Cyperus difformis; conditions: Cyperus difformis, 336 h, 1000 g ai/ha, scale 0 to 100 (0 no effect, 100 complete control), read-out: Sedge, Umbrella plant response rating
Procedure, shortened: as §4

rice = test: Test B flooded paddy test; format: in vivo, Oryza sativa; conditions: Oryza sativa, 336 h, 1000 g ai/ha, scale 0 to 100 (0 no effect, 100 complete control), read-out: Rice plant response rating
Procedure, shortened: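 Formulated test chemicals went onto postemergence plants measuring 2 to 18 cm, at one to four leaves. For the paddy assay, species had reached two leaves. Scoring took place 13–15 days later by eye, relative to untreated plants, using 0 for no effect up to 100 for full control.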

blackgrass = test: Test B postemergence herbicide test; format: in vivo, Alopecurus myosuroides; conditions: Alopecurus myosuroides, post-emergence, 336 h, postemergence, read-out: Blackgrass plant response rating
Procedure, shortened: as §4

[4] = 125 g ai/ha, visual rating, scale 0 (no effect) to 100 (complete control)
[5] = 500 g ai/ha, scale 0 to 100, 0 is no effect, 100 is complete control

CCn1nc(C(C)(C)C)c(F)c1C(=O)Nc1cc(C(=O)N(C)C)ccc1F [Compound 276, N-[5-[(dimethylamino)carbonyl]-2-fluorophenyl]-3-(1,1-dimethylethyl)-1-ethyl-4-fluoro-1H-pyrazole-5-carboxamide]
80%: pest or weed control at 500 g/ha (barnyardgrass [1]; pre-emergence, visual rating, 0 = no effect, 100 = complete control, read-out: Plant response rating, Barnyardgrass) | pest or weed control at 1000 g/ha (ducksalad) | pest or weed control at 1000 g/ha [3]
20%: pest or weed control at 125 g/ha (lambsquarters; post-emergence, postemergence, visual rating, scale 0 (no effect) to 100 (complete control), read-out: Lambsquarters plant response rating) | plant injury at 500 g/ha (corn; post-emergence, postemergence, 500 g ai/ha, scale 0 to 100, 0 is no effect, 100 is complete control, read-out: Corn plant response rating) | plant injury at 125 g/ha (corn; pre-emergence, 0 = no effect, 100 = complete control, read-out: Corn plant response rating (0 to 100 scale)) | plant injury at 125 g/ha (wheat; [4]) | pest or weed control at 500 g/ha (large crabgrass; post-emergence, postemergence, scale 0 to 100, 0 is no effect, 100 is complete control, read-out: Crabgrass, Large plant response rating) | pest or weed control at 500 g/ha (Surinam grass; post-emergence, postemergence, scale 0 to 100, 0 is no effect, 100 is complete control, read-out: Surinam Grass plant response rating)
100%: pest or weed control at 500 g/ha (lambsquarters; pre-emergence, visual rating, 0 = no effect, 100 = complete control, read-out: Plant response rating, Lambsquarters) | pest or weed control at 500 g/ha (pigweed; pre-emergence, visual rating, 0 = no effect, 100 = complete control, read-out: Plant response rating, Pigweed)
10%: pest or weed control at 500 g/ha (barnyardgrass [1]; post-emergence, postemergence, scale 0 to 100, 0 is no effect, 100 is complete control, read-out: Barnyardgrass plant response rating) | pest or weed control at 125 g/ha (cocklebur; post-emergence, postemergence, visual rating, scale 0 (no effect) to 100 (complete control), read-out: Cocklebur plant response rating) | pest or weed control at 500 g/ha (cocklebur; post-emergence, postemergence, scale 0 to 100, 0 is no effect, 100 is complete control, read-out: Cocklebur plant response rating) | pest or weed control at 125 g/ha (giant foxtail; post-emergence, postemergence, visual rating, scale 0 (no effect) to 100 (complete control), read-out: Foxtail, Giant plant response rating) | pest or weed control at 125 g/ha (morningglory; post-emergence, postemergence, visual rating, scale 0 (no effect) to 100 (complete control), read-out: Morningglory plant response rating) | pest or weed control at 500 g/ha (morningglory; pre-emergence, visual rating, 0 = no effect, 100 = complete control, read-out: Plant response rating, Morningglory) | pest or weed control at 125 g/ha (large crabgrass; post-emergence, postemergence, visual rating, scale 0 (no effect) to 100 (complete control), read-out: Crabgrass, Large plant response rating) | pest or weed control at 125 g/ha (large crabgrass; pre-emergence, 0 = no effect, 100 = complete control, read-out: Crabgrass, Large plant response rating (0 to 100 scale)) | pest or weed control at 125 g/ha (Surinam grass; post-emergence, postemergence, visual rating, scale 0 (no effect) to 100 (complete control), read-out: Surinam Grass plant response rating) | pest or weed control at 125 g/ha (Surinam grass; pre-emergence, 0 = no effect, 100 = complete control, read-out: Surinam Grass plant response rating (0 to 100 scale))
40%: pest or weed control at 125 g/ha (lambsquarters; pre-emergence, 0 = no effect, 100 = complete control, read-out: Lambsquarters plant response rating (0 to 100 scale)) | pest or weed control at 500 g/ha (giant foxtail; post-emergence, postemergence, scale 0 to 100, 0 is no effect, 100 is complete control, read-out: Foxtail, Giant plant response rating) | pest or weed control at 125 g/ha (pigweed; post-emergence, postemergence, visual rating, scale 0 (no effect) to 100 (complete control), read-out: Pigweed plant response rating) | pest or weed control at 500 g/ha (wild oat; [5]) | pest or weed control at 500 g/ha (blackgrass; [5])
60%: pest or weed control at 125 g/ha (barnyardgrass [1]; pre-emergence, 0 = no effect, 100 = complete control, read-out: Barnyardgrass plant response rating (0 to 100 scale)) | pest or weed control at 500 g/ha (lambsquarters; post-emergence, postemergence, scale 0 to 100, 0 is no effect, 100 is complete control, read-out: Lambsquarters plant response rating) | Corn plant response rating (crop injury, 0 = no effect, 100 = complete kill) at 500 g/ha (corn; pre-emergence, 500 g ai/ha, visual rating, 0 = no effect, 100 = complete control) | pest or weed control at 500 g/ha (Surinam grass; pre-emergence, visual rating, 0 = no effect, 100 = complete control, read-out: Plant response rating, Surinam Grass)
0%: pest or weed control at 125 g/ha (barnyardgrass [1]; post-emergence, postemergence, visual rating, scale 0 (no effect) to 100 (complete control), read-out: Barnyardgrass plant response rating) | pest or weed control at 125 g/ha (cocklebur; pre-emergence, 0 = no effect, 100 = complete control, read-out: Cocklebur plant response rating (0 to 100 scale)) | plant injury at 125 g/ha (corn; post-emergence, postemergence, visual rating, scale 0 (no effect) to 100 (complete control), read-out: Corn plant response rating) | pest or weed control at 125 g/ha (morningglory; pre-emergence, 0 = no effect, 100 = complete control, read-out: Morningglory plant response rating (0 to 100 scale))
70%: pest or weed control at 500 g/ha (pigweed; post-emergence, postemergence, scale 0 to 100, 0 is no effect, 100 is complete control, read-out: Pigweed plant response rating) | pest or weed control at 500 g/ha (large crabgrass; pre-emergence, visual rating, 0 = no effect, 100 = complete control, read-out: Plant response rating, Crabgrass, Large) | pest or weed control at 1000 g/ha (barnyardgrass [2]) | plant injury at 1000 g/ha (rice)
30%: pest or weed control at 500 g/ha (cocklebur; pre-emergence, visual rating, 0 = no effect, 100 = complete control, read-out: Plant response rating, Cocklebur) | pest or weed control at 125 g/ha (giant foxtail; pre-emergence, 0 = no effect, 100 = complete control, read-out: Foxtail, Giant plant response rating (0 to 100 scale)) | pest or weed control at 125 g/ha (pigweed; pre-emergence, 0 = no effect, 100 = complete control, read-out: Pigweed plant response rating (0 to 100 scale)) | plant injury at 500 g/ha (wheat; [5]) | pest or weed control at 500 g/ha (morningglory; post-emergence, postemergence, scale 0 to 100, 0 is no effect, 100 is complete control, read-out: Morningglory plant response rating) | pest or weed control at 125 g/ha (wild oat; [4]) | pest or weed control at 125 g/ha (blackgrass; [4])
90%: pest or weed control at 500 g/ha (giant foxtail; pre-emergence, visual rating, 0 = no effect, 100 = complete control, read-out: Plant response rating, Foxtail, Giant)
